Experiments:
human platelets = experiment: U-46619 (thromboxane A2 mimic)-induced aggregation in human platelets (Experiment 2); format: cell-based; settings: Platelet, U-46619 10^-5 ~3×10^-5 M; for inhibition at 0.3 µM: 3 × 10^-7 M; for inhibition at 0.1 µM: 10^-7 M
Procedure: Thromboxane A2 antagonistic activity Effect on thromboxane A2 minic (U-46619) - induced aggregation in human platelets.
(§1) Method: Blood was collected in 3.15% sodium citrate (0.1 ml for 0.9 ml of blood) by aortic puncture from anesthetized guinea-pigs. Citrated blood samples were centrifuged at 950 rpm for 10 minutes and 2,000 rpm for 10 minutes at room temperature to obtain platelet-rich plasma (PRP) and platelet-poor plasma (PPP), respectively. The platelet count of PRP was adjusted to 300,000/μl with PPP. Platelet aggregation was measured with a photometer (Hematracer 6, Niko Bioscience, Japan). PRP (250 μl) was preincubated at 37° C. for 2 minutes and then incubated for 2 minutes with drug solution (25 μl), followed by stimulation with U-46619 (25 μl). Effect of drug was shown as the percent inhibition of maximal aggregation of drug-treated group versus that of control group. The concentration of U-46619 was chosen to obtain submaximal aggregation in each PRP (10^-5 ~3×10^-5 M).

guinea-pig platelets = experiment: U-46619 (thromboxane A2 mimic)-induced aggregation in guinea-pig platelets (Experiment 1); format: cell-based; settings: guinea-pig PRP, U-46619 3×10^-7 M
Procedure: Thromboxane A2 antagonistic activity Effect on thromboxane A2 minic (U-46619) - induced aggregation in guinea-pig platelets.
as §1, with “5,000,000/μl” for “300,000/μl”, “(3×10^-7” for “(10^-5 ~3×10^-5”

[1] = test system: U-46619 (TXA2 minic) - induced bronchoconstriction in guinea pig; experiment: Inhibitory effect on U-46619 (TXA2 mimic)-induced bronchoconstriction in guinea pig (Experiment 4); format: in vivo; settings: orally 1 hour before U-46619 (10 μg/kg), p < 0.01 vs control group
Procedure: Inhibitory effect on U-46619 (TXA2 minic) - induced bronchoconstriction in guinea pig.
Method: Six male Hartley guinea pig were used per one group. The guinea pig anesthetized with urethane (1.5 g/kg, i.p.) was fixed in a dorsal position, subjected to tracheotomy and connected to a respirator through a cannula. A side branch of the tracheal cannula was connected to a respirator (Harvard apparatus rodent respirator Type 680) at the rate of 70 strokes/min. and a constant volume of 3 to 5 ml.
Inflation pressure was kept constant at 10 cm H2 O.
After treatment with gallamine triethiodide (1 mg/kg, i.v.), U-46619 (10 μg/kg) dissolved in a physiolosical saline solution was given through a carotid cannula and the airway resistance was measured by the overflow technique of Konzett-Rossler method (Konzett, H. and Rossler, R., Naunyn-Schmiedegerg's Arch, Exp. Path. Pharmak., 195, 71-74 (1940)). A test compound was suspended in 5% gum arabic solution and was administered orally 1 hour before the tratment with U-46619.

[2] = test system: guinea pig tracheal strip; experiment: Inhibitory effect on U-46619 (TXA2 mimic)-induced contraction in guinea pig tracheal strip (Experiment 3); settings: Cavia porcellus; U-46619 10^-8 M; compound added 1 minute before; read-out: IC50 (Concentration for 50% inhibition)
Procedure: Inhibitory effect on U-46619 (TXA2 minic) - induced contraction in guinea pig tracheal strip
Method: Guinea pig tracheae were removed, and tracheal strips were prepared. Each strip was placed in a 10 ml organ bath containing Tyrode's solution aerated with 5% CO2 -95% O2 gas at 37° C. The tracheal strip was placed under resting tension of 1 g. The contractile response of the strip to thromboxane A2 minic U-46619 (10^-8 M) were examined. The strip was treated with the test compound for 1 minute before the addition of U-46619.
Result: The results are shown in Table 10 as the concentration for 50% inhibition (IC50).

rats = experiment: Oral toxicity in rats, 2 weeks; format: in vivo, rat; settings: orally, 1000 mg/kg/day for 2 weeks, 3 rats
Procedure: Toxicity of the derivatives of the present invention is low. For example, in case that (R)-7-(4-fluorophenyl)-7-(5-hydroxy-6,7-dimethyl-l-oxoindan-4-yl)heptanoicacid was administered orally to 3 rats at a dose of 1000 mg/kg/day for 2 weeks, no rat died. The derivatives of the present invention can be safely administered orally or parenterally as they are or as pharmaceutical compositions of known forms obtained by admixing them with known pharmaceutically acceptable carriers, excipients and the like, for example, tablets, capsules (including soft capsules and micro-capsules), liquids, injection preparations, suppositories and the like, according to pharmaceutically acceptable methods. The dosage is varied according to patients, routes of administration, conditions of diseases to be treated and the like. However, in the case of oral administration to, for example, an adult patient, usually, a dose per one administration is about 0.1 to 20 mg/kg of the body weight, perferably, about 0.1 to 10 mg/kg of the body weight and, conveniently, the administration is carried out one to two times per day.

SMILES	inhibition at 0.3 µM (human platelets)	inhibition at 0.1 µM (human platelets)	% Inhibition of aggregation (guinea-pig platelets; 3 × 10^-8 M)	% Inhibition of aggregation (guinea-pig platelets; 10^-7 M)	% Inhibition of aggregation (guinea-pig platelets; 10^-8 M)	inhibition at 0.03 µM (human platelets; 3 × 10^-8 M)	inhibition at 0.01 µM (human platelets; 10^-8 M)	inhibition at 0.3 µM (guinea-pig platelets; Cavia porcellus, Platelet, 3 × 10^-7 M)	% Inhibition ([1]; 0.31 mg/kg)	% Inhibition ([1]; 1.25 mg/kg)	IC50 [2]	mortality (rats)
Cc1c(C)c(CO)c(C)c([C@H](CCCCCC(=O)O)c2ccc(F)cc2)c1O [Compound 20, (R)-7-(4-fluorophenyl)-7-(2-hydroxy-5-hydroxylmethyl-3,4,6-trimethylphenyl)heptanoic acid]	100%	48%	12%	77%	3%							
Cc1c(C)c2c(c([C@H](CCCCCC(=O)O)c3ccc(F)cc3)c1O)CCC2=O [Compound 28, (R)-7-(4-fluorophenyl)-7-(5-hydroxy-6,7-dimethyl-1-oxoindan-4-yl)heptanoic acid]	100%	78%	5%	36%	0%	30%	13%	89%	84%	84%	0.7 nM	no rat died

Source: patent US5354913A, “Optically active phenol derivatives and preparation thereof” (Takeda Chemical Industries, Ltd., priority 1992, dated 1994)
